Reference: patent US20220364989A1, “METHOD FOR MEASURING PHOTOTOXICITY OR PHOTOALLERGY AND REAGENT FOR USE THEREIN” (FUJIFILM Corporation, priority 2018, published 2022)
Read-outs that look alike come from different tables or passages of the source.

Legend:
[1] = 24 h, 0.25 mmol/L, pH 8
Description: (§1) A 1 mmol/L solution of a test substance in water, acetonitrile, acetone, or 5% by mass dimethyl sulfoxide (DMSO)/acetonitrile solution is prepared and used as a test substance solution. A solvent in which the test substance is soluble at a concentration of 1 mmol/L is used. If the test substance is soluble in a plurality of solvents, the solvent is selected in the following order of priority: water, acetonitrile, acetone, and 5% by mass DMSO/acetonitrile.
(§2) Test substance solutions are prepared on a 96-well plate (U96 PP-0.5 ML NATURAL, Thermo (NUNC)), mainly using a 12-channel pipette, and the reagents are added in the following amounts:
(§3) Nucleophilic reagents (NAC and NAL): 150 μL
Test substance solution: 50 μL
(§4) The plate is firmly sealed with a plate seal (resistant embossed seal, Shimadzu GLC Ltd.) and is shaken on a plate shaker (Titramax 100, Heidolph Instruments). After being spun down in a centrifuge, the reaction solutions are irradiated with light at 2,000 μW/cm^2 using an SXL-2500V2 ultraviolet irradiation apparatus (manufactured by SERIC., Ltd.) for 1 hour, followed by incubation at 25° C. in a light-shielded state for 23 hours. As controls without light irradiation, reaction solutions are prepared, followed by incubation at 25° C. in a light-shielded state for 24 hours.
(§5) For measurements using a fluorescence detector, 180 μL of the reaction stop solution (0.5% (v/v) TFA) is dispensed into each well of another plate in advance, and 20 μL of each sample is added so that the sample is diluted 10-fold.
(§6) The depletion of NAC or NAL is calculated from the average (n=3) peak area of unreacted NAC or NAL after the reaction and the average (n=3) peak area of NAC or NAL in a standard solution (no test substance added) by the following equations:
(§7) NAC depletion (% depletion)=[1−(average peak area of unreacted NAC after reaction/average peak area of NAC) in standard solution (no test substance added)]×100
(§8) The average peak area of unreacted NAC after the reaction is the average area calculated from three measurements on unreacted NAC after the reaction. The average peak area of NAC in a standard solution (no test substance added) is the average area calculated from three measurements on NAC in a reaction solution prepared by adding the solvent used for dissolution of the test substance instead of the test substance solution.
(§9) As the conditions without light irradiation, the 1 mmol/L test substance solutions were each reacted with the nucleophilic reagents, namely, NAC and NAL, at 25° C. for 24 hours. As the conditions with light irradiation, the 1 mmol/L test substance solutions were each irradiated at room temperature with light at 2,000 μW/cm^2 for 1 hour and were then reacted at 25° C. for 23 hours.
(§10) All reactions were performed on the 96-well plate. For each sample, n=3. As comparative controls, reaction solutions to which only the solvents, which are used to dissolve the test substances, were added were also prepared. The reaction solutions were prepared such that the concentrations of NAC and NAL were 5 μmon and the concentration of the test substance was 0.25 mmol/L. After 24 hours, HPLC measurements were made by two detection methods, namely, light absorption detection on a photodiode array (PDA) detector and fluorescence detection on a fluorescence detector. For PDA detection, a trifluoroacetic acid (TFA) aqueous solution was added to the reaction solutions to a final TFA concentration of 0.5% (v/v) before use in the HPLC measurements. For fluorescence detection, each sample was diluted tenfold with a 0.5% (v/v) trifluoroacetic acid (TFA) aqueous solution before use in the HPLC measurements.

[2] = 24 h, 0.25 mmol/L, pH 10.2
Description: as §1, §2, §3
Test substance solution: 50 μL
as §4, §5, §6
(§11) NAL depletion (% depletion)=[1−(average peak area of unreacted NAL after reaction/average peak area of NAL) in standard solution (no test substance added)]×100
(§12) The average peak area of unreacted NAL after the reaction is the average area calculated from three measurements on unreacted NAL after the reaction. The average peak area of NAL in a standard solution (no test substance added) is the average area calculated from three measurements on NAL in a reaction solution prepared by adding the solvent used for dissolution of the test substance instead of the test substance solution.
as §9, §10

[3] = cited from earlier work
[4] = cited from earlier work; remark: listed apart in the source
[5] = 24 h, 0.25 mmol/L
Description: After being spun down in a centrifuge, the reaction solutions are irradiated with light at 2,000 μW/cm^2 using an SXL-2500V2 ultraviolet irradiation apparatus (manufactured by SERIC., Ltd.) for 1 hour, followed by incubation at 25° C. in a light-shielded state for 23 hours. As controls without light irradiation, reaction solutions are prepared, followed by incubation at 25° C. in a light-shielded state for 24 hours.
as §9, §10
The depletions of the nucleophilic reagents (NAC and NAL) were determined by UV detection at 281 nm or fluorescence detection at an excitation wavelength of 284 nm and a fluorescence wavelength of 333 nm under the HPLC measurement conditions given in “(5) HPLC Measurement” above.
As the conditions without light irradiation, the liquid mixtures were each reacted with the nucleophilic reagents, namely, NAC and NAL, at 25° C. for 24 hours. As the conditions with light irradiation, the liquid mixtures were each irradiated at room temperature with light at 2,000 μW/cm^2 for 1 hour and were then reacted at 25° C. for 23 hours.
All reactions were performed on the 96-well plate. For each sample, n=3. Reaction solutions to which only the solvent used for calculation of the depletions of NAC and NAL was added were also prepared. The reaction solutions were prepared such that the concentrations of NAC and NAL were 5 μmon and the concentration of the test substance was 0.5 mmol/L. After 24 hours, HPLC measurements were made by two detection methods, namely, light absorption detection on a photodiode array (PDA) detector and fluorescence detection on a fluorescence detector. For PDA detection, a trifluoroacetic acid (TFA) aqueous solution was added to the reaction solutions to a final TFA concentration of 0.5% (v/v) before use in the HPLC measurements.

[6] = 24 h, 0.25 mmol/L, pH 8; remark: listed apart in the source
Description: as §1, §2, §3
Test substance solution: 50 μL
as §4, §5, §6, §7, §8, §9, §10

[7] = 24 h, 0.25 mmol/L, pH 10.2; remark: listed apart in the source
Description: as §1, §2, §3
Test substance solution: 50 μL
as §4, §5, §6, §11, §12, §9, §10

CCCCC(CC)COC(=O)c1ccc(N(C)C)cc1 (stereo not drawn) [No. 19, 2-ethylhexyl p-dimethylaminobenzoate]
NAC Depletion (%) [1]: 98.1%
NAL Depletion (%) [2]: 1.3%
In vivo phototoxicity ([3]; in vivo): Negative
In vivo photoallergy ([4]; in vivo): Positive

Oc1ccc(Cl)cc1Cc1cc(Cl)ccc1O [No. 21, Dichlorophen]
NAC Depletion (%) [1]: 98.5%
NAL Depletion (%) [2]: 14.5%
Average score (%) [5]: 56.5%
In vivo photoallergy ([4]; in vivo): Positive

CCCCCCCCCCCCCCCCO [compound 49, Cetyl alcohol]
Difference in depletion (under light irradiation - without light irradiation) NAC (%) [6]: 3.7%
NAC Depletion (%) under light irradiation [6]: 5.5%
NAC Depletion (%) without light irradiation [6]: 1.8%
Difference in depletion (under light irradiation - without light irradiation) NAL (%) [7]: 3.3%
NAL Depletion (%) under light irradiation [7]: 6.1%
NAL Depletion (%) without light irradiation [7]: 2.8%
In vivo phototoxicity ([3]; reported in References 1 to 3): Negative
In vivo photoallergy ([4]; reported in References 1 and 2): Negative

Cc1ccc2oc(=O)ccc2c1 [compound 2, 6-Methylcoumarin]
Difference in depletion (under light irradiation - without light irradiation) NAC (%) [6]: 95.8%
NAC Depletion (%) under light irradiation [6]: 96.3%
NAC Depletion (%) without light irradiation [6]: 0.5%
Difference in depletion (under light irradiation - without light irradiation) NAL (%) [7]: 5.5%
NAL Depletion (%) under light irradiation [7]: 5.7%
NAL Depletion (%) without light irradiation [7]: 0.2%
In vivo phototoxicity ([3]; reported in References 1 to 3): Positive
In vivo photoallergy ([4]; reported in References 1 and 2): Positive
